Experimental findings from ChEMBL document CHEMBL1201862, “PubChem BioAssay data set” (2004) are described below.

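All cell lines were grown in 96-well plates and treated with compound for 48 hours. GI50 is the concentration that inhibits growth by half.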 The source made the active and inactive calls. Cut-off read from the data, not from the text of the source: active = GI50 up to about 1.1 µM and inactive = higher. A value given as a limit tells only on which side of the number the result lay.

Test in all cases: DTP human tumour cell line panel, 48 h
Experiment [1] concerns KM12.
The subject of experiment [2] is SF-539.
Experiment [3] deals with SK-OV-3.
Experiment [4] relates to OVCAR-5.
Experiment [5] has as its system HL-60.
The subject of experiment [6] is HT-29.
The subject of experiment [7] is SNB-19.
The subject of experiment [8] is DU-145.
Experiment [9] deals with U-251.
Experiment [10] deals with SNB-75.
The test system of experiment [11] is OVCAR-8.
Experiment [12] relates to A498.
In experiment [13] the test system is COLO 205.
Experiment [14] deals with SW-620.
The test system of experiment [15] is BT-549.
Experiment [16] concerns OVCAR-4.
Experiment [17] deals with TK-10.
In experiment [18] the test system is 786-0.
Experiment [19] deals with SR.
Experiment [20] deals with NCI-H522.

For the compound `COc1cc(/C=C2\CC/C(=C\c3cc(OC)c(O)c(OC)c3)C2=O)cc(OC)c1O`, the GI50 (usually the concentration at which growth is held to half of that of the control) in [1] was 1.48 µM (inactive); in experiment [2], 3.61 µM (inactive); in experiment [3], 3.81 µM (inactive); in experiment [4], 6.18 µM (inactive); in [5] it was 1.51 µM (inactive); in experiment [6], 10.4 µM (inactive). Besides, the GI50 in experiment [7] was 3.69 µM (inactive); in [8] it was 2.21 µM (inactive); in [9] it was 2.06 µM (inactive); in experiment [10] it was 1.19 µM (inactive); in experiment [11] it was 3.01 µM (inactive); in experiment [12], 1.01 µM (active). Also, the GI50 in experiment [13] is 17.1 µM (inactive); in experiment [14], 1.88 µM (inactive); in [15], 2.69 µM (inactive); in experiment [16] it was 1.69 µM (inactive); in experiment [17], 5.32 µM (inactive); in experiment [18] it was 4.9 µM (inactive). For the same compound, the GI50 is 2.88 µM (inactive) in [19] and 0.798 µM (active) in experiment [20].
Take `NC(=S)N/N=C/c1ncccc1N` [TRIAPINE]: the GI50 is 4.59 µM (inactive) in [1]; 0.239 µM (active) in [2]; > 8.55 µM (inactive) in experiment [3]; 5.08 µM (inactive) in experiment [4]; 1.03 µM (active) in [5]; 1.93 µM (inactive) in experiment [6]. Moreover, the GI50 in [7] was 9.89 µM (inactive); in experiment [8], 0.681 µM (active); in experiment [9], 1.04 µM (active); in experiment [10], 0.773 µM (active); in [11], 0.568 µM (active); in experiment [12], 0.615 µM (active). For the same compound, the GI50 in experiment [13] was 2.23 µM (inactive); in experiment [14] it was 3.72 µM (inactive); in experiment [15], 2.37 µM (inactive); in experiment [16] it was 7.48 µM (inactive); in experiment [17], > 10 µM (inactive); in experiment [18], 0.314 µM (active). In addition, the GI50 in experiment [19] is 0.403 µM (active); in [20], 2.03 µM (inactive).
As to `CCCCCCCCCCCCCCCCCCOc1ccc(/C=C/C2=[N+](CCCl)CCO2)cc1`, the GI50 in experiment [1] was > 100 µM (inactive); in [2], > 100 µM (inactive); in experiment [3], > 100 µM (inactive); in experiment [4], 95.7 µM (inactive); in [5] it was 53.3 µM (inactive); in experiment [6] it was > 100 µM (inactive). Also, the GI50 in experiment [7] was > 100 µM (inactive); in experiment [8], > 100 µM (inactive); in [9] it was 50.4 µM (inactive); in experiment [10], 3.54 µM (inactive); in experiment [11], > 100 µM (inactive); in [12], > 100 µM (inactive). Further, the GI50 was 70.1 µM (inactive) in [13]; > 100 µM (inactive) in experiment [14]; > 100 µM (inactive) in experiment [15]; > 100 µM (inactive) in experiment [16]; > 100 µM (inactive) in experiment [17]; > 100 µM (inactive) in [18]. Moreover, the GI50 was 30.9 µM (inactive) in experiment [19] and 0.796 µM (active) in [20].
`COc1cccc(N2C(=O)C3c4[nH]c5ccccc5c4C4CCCC4C3C2=O)c1` (stereo not given): the GI50 in experiment [1] was > 10 µM (inactive); in [2], 7 µM (inactive); in experiment [3], 6.64 µM (inactive); in [4], > 10 µM (inactive); in experiment [5] it was > 10 µM (inactive); in experiment [6] it was 5.69 µM (inactive). Also, the GI50 is 5.81 µM (inactive) in experiment [7]; > 10 µM (inactive) in [8]; 4.06 µM (inactive) in [9]; 2.24 µM (inactive) in [10]; 3.74 µM (inactive) in experiment [11]; 2.17 µM (inactive) in experiment [12]. In addition, the GI50 in experiment [13] is > 10 µM (inactive); in [14], 7.98 µM (inactive); in experiment [15] it was > 10 µM (inactive); in experiment [16] it was 2.26 µM (inactive); in [17], > 10 µM (inactive); in [18], 2.14 µM (inactive). For the same compound, the GI50 in [19] is 1.48 µM (inactive); in experiment [20], > 10 µM (inactive).
With `N#C[BH2-][n+]1cn(C2CC(OP(=O)(O)OCC3OC(n4cnc5c(=O)[nH]c(N)nc54)CC3O)C(CO)O2)c2nc(N)[nH]c(=O)c21` (stereo not given), the GI50 in experiment [1], in [2], in experiment [3], in experiment [4], in experiment [5] and in experiment [6] was > 100 µM (inactive) throughout. The GI50 in experiment [7], in experiment [8], in [9], in experiment [10], in [11] and in [12] was > 100 µM (inactive) throughout. Besides, the GI50 in experiment [13], in experiment [14], in [15], in experiment [16], in [17] and in [18] was > 100 µM (inactive) each time. Further, the GI50 in experiment [19] and in [20] was > 100 µM (inactive) in each case.
Regarding `C[C@]12Cc3cnn(-c4ccc(F)cc4)c3NC1CC[C@@H]1C2CC[C@@]2(C)C1CC[C@@H]2O` (stereo not given in full), the GI50 is 4.95 µM (inactive) in experiment [1]; 1.55 µM (inactive) in [2]; 11.7 µM (inactive) in [3]; 12.7 µM (inactive) in experiment [4]; 1.61 µM (inactive) in [5]; 1.83 µM (inactive) in experiment [6]. For the same compound, the GI50 is 15.5 µM (inactive) in [7]; 5.42 µM (inactive) in [8]; 5.15 µM (inactive) in [9]; 2.76 µM (inactive) in [10]; 12.5 µM (inactive) in [11]; 8.83 µM (inactive) in experiment [12]. In addition, the GI50 in experiment [13] is 2.94 µM (inactive); in [14], 3.83 µM (inactive); in experiment [15], 3.14 µM (inactive); in [16], 13.2 µM (inactive); in [17], 7.71 µM (inactive); in experiment [18], 2.68 µM (inactive). Further, the GI50 was 0.537 µM (active) in experiment [19] and 12.2 µM (inactive) in experiment [20].
Take `CCOP(=O)(OCC)C(c1ccccc1)N(C(=O)NC(F)(F)F)c1ccc(C)cc1` (stereo not given): the GI50 in [1], in experiment [2], in experiment [3], in experiment [4], in [5] and in experiment [6] was > 100 µM (inactive) in each case. For the same compound, the GI50 in experiment [7], in experiment [8], in [9], in [10], in [11] and in experiment [12] was > 100 µM (inactive) throughout. Also, the GI50 in experiment [13], in experiment [14], in [15], in [16], in experiment [17] and in experiment [18] was > 100 µM (inactive) throughout. Also, the GI50 in [19] and in experiment [20] was > 100 µM (inactive) throughout.
For `CC1=Nc2c(O)nc(S)nc2NC(c2c(Cl)cccc2Cl)C1` (stereo not given), the GI50 was 1.75 µM (inactive) in [1]; 1.75 µM (inactive) in [2]; 7.28 µM (inactive) in experiment [3]; 5.83 µM (inactive) in experiment [4]; 0.552 µM (active) in experiment [5]; 0.998 µM (active) in [6]. In addition, the GI50 was 2.99 µM (inactive) in experiment [7]; 1.95 µM (inactive) in experiment [8]; 0.993 µM (active) in experiment [9]; 3.34 µM (inactive) in experiment [10]; 0.877 µM (active) in [11]; 1.67 µM (inactive) in experiment [12]. The GI50 is 1.87 µM (inactive) in experiment [13]; 0.971 µM (active) in experiment [14]; 1.24 µM (inactive) in experiment [15]; 2.74 µM (inactive) in experiment [16]; 10.1 µM (inactive) in experiment [17]; 0.902 µM (active) in [18]. The GI50 is 0.372 µM (active) in [19] and 1.98 µM (inactive) in [20].
